Results taken from patent publication US20230003721A1, “MITOTHERAPEUTICS FOR THE TREATMENT OF BRAIN DISORDERS” (The University of Florida Research Foundation, Inc., priority 2019, published 2023).
Structures can show the parent of a compound that is named as a salt. Where two headings read alike, the source gives them in different places.

Columns and labels:
[1] = tested on: primary forebrain neurons; test: cells; conditions: for EC50: Mus musculus, Neuron
Procedure: Primary forebrain cell culture and maintenance. Forebrains of P0 Mt or Mt/Ai14 pups without olfactory bulbs and meninges were collected and placed in ice cold Ca^2+ and Mg^2+ free HBSS supplemented with 2 μg/ml gentamicin, 25 mM D-glucose, 1 mM pyruvate and 20 mM HEPES. Brain tissue was digested with 0.6 mg/ml papain at 37° C. for 20 min. Forebrains were washed with plating media [Neurobasal (Gibco), 5% FBS, 4 mM GlutaMAX (Gibco), 2 μg/ml gentamicin]. The tissue was gently triturated, allowed to settle and the supernatant was filtered through a 40 μm mesh-sized cell strainer. Cells were centrifuged at 420×g for 4 min and resuspended in plating media. 15,000 cells per well were plated with 2×10^8 viral particles/ml onto black Greiner μClear (Cat #781946) or Ultra-Low Base Aurora with evaporation barrier (Cat #ABE201201B) 384-well plates (80 μl/well) pre-coated with poly-D-lysine for the primary screen and rescreen, respectively. Plating and media changes were performed using an automated Biomek FX^P liquid handling workstation. Four hr after plating, 75% of the plating media was replaced by feeding media [Neurobasal-A (Gibco), 4 mM GlutaMAX (Gibco), 2 μg/ml gentamicin, 2% B27 (Gibco)]. At DIV4, 50% of the media was exchanged with fresh feeding media supplemented with 16 μM 5-Fluoro-2′-deoxyuridine (FUdR) to prevent glial cell over-growth. At DIV8 and DIV12, additional 50% media changes were made without FUdR. Cells were maintained at 37° C. and 5% CO2; plates were topped with Breathe-Easy adhesive membranes (Greiner plates) to minimize evaporation.
Compounds and compound transfer.
Imaging. Images were captured using a GE Incell 6000 system (60× objective, 0.95 NA, 16-bit images) equipped with environmental control (37° C., 5% CO2). Mt-GFP (green channel) was imaged by confocal imaging (3 slices, Δz=0.7 μm, aperture=1.0 AU, λexc=488 nm, λem=515-535 nm). Cyto-tdTomato (red channel) and MitoTracker Orange (red channel) were imaged using confocal mode (3 slices, Δz=0.7 μm, aperture=1.0 AU, λexc=561 nm, λem=569-641 nm, MitoTracker Orange) or with widefield mode (Cyto-tdTomato). TMRM imaged for the co-localization experiments with Mt-GFP was imaged using the confocal mode (3 slices, […] aperture=1.0, λexc=488, λem=569-641 nm). For the live-dead assay, primary neurons were imaged with a 20× (widefield mode, NA 0.45) objective using λexc=561 nm and λem=569-641 nm for the propidium iodide stained dead cells (red channel), and λexc=488 nm and λem=515-535 nm for the fluorescein diacetate stained live cells (green channel). 10 fields were collected from each well, and 4 wells were imaged/condition in the live-dead assay. For all other experiments, 4 fields/well were imaged unless otherwise stated.
Automated data analysis pipeline. Most experiments utilized only Mt-GFP; some utilized both Mt-GFP and Cyto-tdTomato. The Z-projected images were preprocessed using a custom Fiji macro. For preprocessing of Mt-GFP images: background was subtracted (rolling ball, radius=3), images were median filtered (radius=1) and somatic mitochondria were removed. For removal of the somatic mitochondria, they were first segmented and then a somatic mitochondrial mask overlaid on the image.

[2] = tested on: primary neurons; test: TMRM fluorescence assay of inner mitochondrial membrane potential (ΔΨm); conditions: for TMRM Primary: primary screen; for TMRM Primary / TMRM Rescreen: 24 h; for TMRM (Effect-size): maximal percent increase relative to in-plate DMSO controls; for TMRM (Effect-size) / EC50: dose response; for EC50: read-out: TMRM-EC50, 15 concentrations from 6 nM to 100 uM
[3] = tested on: primary neurons; test: CellTiter-Glo luminescence-based ATP assay; format: cell-based, mouse; conditions: for ATP: ATP orthogonal screen, 24 h; for EC50 / ATP (Effect-size): dose response; for EC50: 15 concentrations from 6 nM to 100 uM; for ATP (Effect-size): maximal percent increase relative to in-plate DMSO controls
Method in brief: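 Primary neurons treated from DIV13 for 24 h with compound or DMSO. After part of the medium was removed, CellTiter-Glo reagent was added; plates were shaken 10 min at 200 rpm, kept 2 min in the dark at room temperature, and luminescence read as total ATP.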

[4] = rescreen, 12.5 μM, 24 h, vs DMSO wells
[5] = 24 h, read-out: Health (Ax Mt Circularity) EC50
[6] = 24 h, read-out: Mt Content (Dend Mt CA) EC50
[7] = 24 h, read-out: Elongation (Dend Mt length) EC50
[8] = 24 h, read-out: Sprouting (Neurite Area) EC50

COc1cc(OC)c2c(c1)O[C@H](c1ccc(OC)c(OC)c1)[C@@H](O)C2
Dendritic Mt CA [1, 4]: 2.44 robust Z-scores
Neurite Area [1, 4]: 1.87 robust Z-scores

C[C@@H](N)[C@@H](O)c1ccccc1 [1R,2S-PHENYLPROPYLAMINE]
Dendritic Mt CA [1, 4]: 3.14 robust Z-scores
Neurite Area [1, 4]: 1.25 robust Z-scores

O=C(/C=C/c1ccc(O)cc1)c1ccccc1O [2′,4-DIHYDROXYCHALCONE]
Dendritic Mt CA [1, 4]: 2.57 robust Z-scores
Neurite Area [1, 4]: 0.01 robust Z-scores

O=C(/C=C/c1ccccc1)c1ccc(O[C@@H]2O[C@H](CO)[C@@H](O)[C@H](O)[C@H]2O)cc1O [2′,4′-DIHYDROXYCHALCONE 4′-GLUCOSIDE]
Dendritic Mt CA [1, 4]: 4.44 robust Z-scores
Neurite Area [1, 4]: −0.18 robust Z-scores

O=c1c(O)c(-c2ccccc2)oc2cccc(O)c12 [3,5-DIHYDROXYFLAVONE]
Dendritic Mt CA [1, 4]: 3.43 robust Z-scores
Neurite Area [1, 4]: 1.20 robust Z-scores

O=c1c(O)c(-c2ccccc2)oc2cc(O)ccc12 [3,7-DIHYDROXYFLAVONE]
Dendritic Mt CA [1, 4]: 2.78 robust Z-scores
Neurite Area [1, 4]: 1.37 robust Z-scores

O=c1cc(-c2ccccc2)oc2ccc(O)cc12 [6-HYDROXYFLAVONE]
Dendritic Mt CA [1, 4]: 2.88 robust Z-scores
Neurite Area [1, 4]: 0.69 robust Z-scores

COc1ccccc1-c1coc2cc(O)ccc2c1=O [7-HYDROXY-2′-METHOXYISOFLAVONE]
EC50 [1, 5]: 200 nM
EC50 [1, 6]: > 25000 nM

CC[C@@]1(O)C(=O)OCc2c1cc1n(c2=O)Cc2cc3cc(O)ccc3nc2-1 [10-HYDROXYCAMPTOTHECIN]
Dendritic Mt CA [1, 4]: 2.23 robust Z-scores
Neurite Area [1, 4]: 2.29 robust Z-scores

CN1CCc2cccc3c2[C@H]1Cc1ccc(O)c(O)c1-3 [APOMORPHINE HYDROCHLORIDE]
Dendritic Mt CA [1, 4]: 2.10 robust Z-scores
Neurite Area [1, 4]: −0.07 robust Z-scores

CCCC1O[C@@H]2C[C@H]3[C@@H]4CCC5=CC(=O)C=C[C@]5(C)[C@H]4[C@@H](O)C[C@]3(C)[C@]2(C(=O)CO)O1 (some centres unmarked) [BUDESONIDE]
Dendritic Mt CA [1, 4]: 2.16 robust Z-scores
Neurite Area [1, 4]: −0.61 robust Z-scores

CCCCCOC(=O)Nc1nc(=O)n([C@@H]2O[C@H](C)[C@@H](O)[C@H]2O)cc1F [CAPECITABINE]
Dendritic Mt CA [1, 4]: 2.88 robust Z-scores
Neurite Area [1, 4]: 0.58 robust Z-scores

CNC(=O)Oc1cccc2ccccc12 [CARBARIL]
Dendritic Mt CA [1, 4]: 2.03 robust Z-scores
Neurite Area [1, 4]: −0.48 robust Z-scores

CC(C)CCC[C@@H](C)[C@H]1CC[C@H]2[C@@H]3CC=C4CC(=O)CC[C@]4(C)[C@H]3CC[C@]12C [CHOLEST-5-EN-3-ONE]
Dendritic Mt CA [1, 4]: 2.78 robust Z-scores
Neurite Area [1, 4]: −0.65 robust Z-scores

C#CCN(C)CCCOc1ccc(Cl)cc1Cl [CLORGILINE HYDROCHLORIDE]
EC50 [1, 7]: 5000 nM
EC50 [1, 5]: 300 nM
EC50 [1, 6]: 1000 nM
EC50 [1, 8]: > 25000 nM
Dendritic Mt CA [1, 4]: 4.33 robust Z-scores
Neurite Area [1, 4]: −0.36 robust Z-scores

COc1ccc2c(c1)[C@]13CCCC[C@@H]1[C@H](C2)N(C)CC3 [DEXTROMETHORPHAN HYDROBROMIDE]
Dendritic Mt CA [1]: 2.38 robust Z-scores
Neurite Area [1]: 0.21 robust Z-scores

C=C(C)c1cc2cc(C(C)=O)c(O)cc2o1 [EUPARIN]
Dendritic Mt CA [1, 4]: 4.22 robust Z-scores
Neurite Area [1, 4]: 1.17 robust Z-scores

O=C(CCCN1CCC(O)(c2ccc(Cl)cc2)CC1)c1ccc(F)cc1 [HALOPERIDOL]
Dendritic Mt CA [1, 4]: 2.99 robust Z-scores
Neurite Area [1, 4]: −2.37 robust Z-scores

FC(F)(F)C(Cl)Br (centres unmarked) [HALOTHANE]
Dendritic Mt CA [1]: 2.60 robust Z-scores
Neurite Area [1]: 2.65 robust Z-scores

COc1ccc2c(c1)[nH]c1c(C)nccc12 [HARMINE]
EC50 [1, 7]: 1700 nM
EC50 [1, 5]: > 25000 nM
EC50 [1, 8]: > 25000 nM
Dendritic Mt CA [1, 4]: 3.65 robust Z-scores
Neurite Area [1, 4]: −1.63 robust Z-scores

CC[C@H]1CN2CC[C@H]1C[C@@H]2[C@@H](O)c1ccnc2ccc(OC)cc12 [HYDROQUINIDINE]
Dendritic Mt CA [1, 4]: 2.19 robust Z-scores
Neurite Area [1, 4]: −0.15 robust Z-scores

CC1=C(/C=C/C(C)=C/C=C/C(C)=C\C(=O)O)C(C)(C)CCC1 [ISOTRETINON]
Dendritic Mt CA [1, 4]: 2.69 robust Z-scores
Neurite Area [1, 4]: 0.77 robust Z-scores

Nc1nnc(-c2cccc(Cl)c2Cl)c(N)n1 [LAMOTRIGINE]
Dendritic Mt CA [1, 4]: 4.75 robust Z-scores
Neurite Area [1, 4]: 1.00 robust Z-scores

CC12CC3CC(C)(C1)CC(N)(C3)C2 [MEMANTINE HYDROCHLORIDE]
confirmation in the re-screen ([1]; 12.5 μM, 10 replicate plates): weak hits
Dendritic Mt CA [1, 4]: 3.25 robust Z-scores
Neurite Area [1, 4]: 1.45 robust Z-scores

CCOC(=O)C1=C[C@]2(CC)CCCN3CCc4c(n1c1ccccc41)[C@@H]32 [vinpocetine]
TMRM Primary ([2]; 12.5 μM): 5.76 Z-scores
TMRM Rescreen [2]: 6.16 Z-scores
ATP [3]: 6.29 Z-scores

acetophenazine maleate
TMRM (Effect-size) [2]: 17.5%
TMRM Primary ([2]; 12.5 μM): 5.64 Z-scores
EC50 [2]: 1150 nM
TMRM Rescreen [2]: 5.34 Z-scores
ATP [3]: 5.65 Z-scores
EC50 [3]: 300 nM
ATP (Effect-size) [3]: 16.7%

butacaine sulfate
TMRM Primary ([2]; 12.5 μM): 3.85 Z-scores
TMRM Rescreen [2]: 5.06 Z-scores
ATP [3]: 6.99 Z-scores

carvedilol phosphate
TMRM Primary ([2]; 12.5 μM): 5.81 Z-scores
TMRM Rescreen [2]: 5.43 Z-scores
ATP [3]: 6.87 Z-scores

colistin sulfate
TMRM Primary ([2]; 12.5 μM): 3.27 Z-scores
TMRM Rescreen [2]: 5.24 Z-scores
ATP [3]: 5.48 Z-scores

pizotyline malate
TMRM (Effect-size) [2]: 25.2%
TMRM Primary ([2]; 12.5 μM): 3.21 Z-scores
EC50 [2]: 2600 nM
TMRM Rescreen [2]: 5.84 Z-scores
ATP [3]: 7.13 Z-scores
EC50 [3]: 360 nM
ATP (Effect-size) [3]: 17.9%

trimebutine maleate
hit in TMRM primary screen when assayed at 4 h ([2]; 12.5 μM, 4 h): trimebutine maleate*
TMRM Primary ([2]; 12.5 μM): 3.79 Z-scores
TMRM Rescreen [2]: 5.82 Z-scores
ATP [3]: 6.14 Z-scores

trimeprazine tartrate
TMRM Primary ([2]; 12.5 μM): 3.13 Z-scores
TMRM Rescreen [2]: 3.94 Z-scores
ATP [3]: 5.75 Z-scores
